# Measured values as given in patent US20220251109A1, “OXAAZAQUINAZOLINE-7(8H)-KETONE COMPOUND, PREPARATION METHOD THEREFOR AND PHARMACEUTICAL APPLICATION THEREOF” (GENFLEET THERAPEUTICS (SHANGHAI) INC., priority 2019, published 2022).
# Like-named read-outs stand apart in the source and are kept apart here.
# Columns and labels:
# Format in all cases: cell-based, human
# [1] = test system: MIA PaCa-2 cells (Kras G12C mutation); assay: Cell proliferation inhibition experiment, 3D model, CellTiter-Glo (MIA PaCa-2); settings: MIA PaCa-2, 3D sphere plate, 5 days, read-out: MIA-PaCa2 IC50
# Protocol: MIA PaCa2 was a human pancreatic cancer cell line with Kras G12C mutation, cultured in 10% FBS+2.5% Horse serum DMEM medium; A549 was a human lung adenocarcinoma cell line with Kras G12S mutation, cultured in 10% FBS F-12K medium. The cells in the logarithmic growth phase were taken, digested with enzyme EDTA, collected, counted and 200 MIA PaCa-2 or 400 A549 cells were seeded in a 384-well sphere plate respectively, cultured overnight to establish a 3D cell model. DMSO was used to prepare 1000× compound 3.16-fold gradient concentration stock solution, and medium was used to dilute 100-fold to 10× compound stock solution. On the second day after cell seeding, 10× compound stock solution was added to each cell culture well, the final concentration was 1×, and DMSO content was 0.1%. DMSO was used as an experimental control (control), medium as the blank control (blank). After the compound and cells were added and cultured for 5 days, 30 μl CellTiter-Glo working solution was added to each well, mixed and incubated for 30 minutes. After 30 minutes at room temperature, 40 μl of the mixture was transferred to a 384-well plate with a non-transparent white bottom, the luminescence chemiluminescence value was read, and the cells proliferation inhibition rate IR (%)=(RLU control-RLU compound)/(RLU control-RLU blank)×100% was calculated, XLFit four-parameter method was used to fit the compound's gradient dilution concentration and the corresponding cell proliferation inhibition rate, and the IC50 value was calculate.
# [2] = test system: NCI-H358 cells (Kras G12C mutation); assay: Cell proliferation inhibition experiment, 3D model, CellTiter-Glo (NCI-H358); settings: NCI-H358, 3D sphere plate, 5 days, 2% FBS
# Summary of the method: (§1)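 Luminescent ATP read-out (CellTiter-Glo) after 5-day compound treatment gave % inhibition relative to DMSO control and medium blank, fitted four-parameter for IC50. Spheroids were formed overnight in 2% FBS medium from 800 H358 or 400 A549 cells per well; dilutions were 3.16-fold, final DMSO 0.1%.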
# [3] = test system: p-ERK in MIA PaCa2 cells (Kras G12C mutation); assay: Cell p-ERK detection experiment (HTRF) in MIA PaCa2 cells; settings: compound 2 hours
# Protocol: MIA PaCa2 was a human pancreatic cancer cell line with Kras G12C mutation, cultured in 10% FBS+2.5% Horse serum DMEM medium. The cells in the logarithmic growth phase were taken, digested with enzyme EDTA, collected, counted and 2.5E4 cells were seeded in a 96-well cell culture plate, cultured overnight. DMSO was used to prepare 1000× compound 3.16-fold gradient concentration stock solution, and medium was used to dilute 200-fold to 5× compound stock solution. On the second day after cell seeding, 5× compound stock solution was added to each cell culture well, the final concentration was 1×, and DMSO content was 0.1%. DMSO was used as an experimental control (control). After the compound was added and cultured for two hours, the remaining medium was removed. 50 ul cell lysis buffer was added to each well, mixed and incubated for 30 minutes, then 16 ul of the mixture was transferred to a 96-well plate with a non-transparent white bottom, and 16 ul cell lysis buffer was added to blank wells. After the completion of the transfer, 4 ul p-ERK HTRF antibody mixture was added to each well, incubated for 4 hours and the fluorescence value was read. The compound inhibition rate IR (%)=(RLU control-RLU compound)/(RLU control-RLU blank)×100% was calculated, Prism 8 four-parameter method was used to fit the compound's gradient dilution concentration and the corresponding cell proliferation inhibition rate, and the IC50 value was calculate.
# [4] = test system: A549 cells (Kras G12S mutation); assay: Cell proliferation inhibition experiment, 3D model, CellTiter-Glo (A549); settings: A549, 3D sphere plate, 5 days, 2% FBS
# Summary of the method: as §1
# [5] = Homo sapiens, MIA PaCa-2, 120 h
SMILES,"IC50 [1, 5]","IC50 ([2]; Homo sapiens, NCI-H358, 120 h)","IC50 ([3]; Homo sapiens, MIA PaCa-2, 2 h)","IC50 ([4]; Homo sapiens, A549, 120 h)",IC50 [1],IC50 [2],IC50 [3],IC50 [4]
"C=CC(=O)N1CCN2c3nc(=O)n(-c4c(C)ccnc4C4CC4)c4nc(-c5c(O)cccc5F)c(F)c(c34)OC[C@H]2C1 (single isomer, unassigned) [Compound Z112-2]",,,,,126 nM,94 nM,502 nM,> 30000 nM
"C=CC(=O)N1CCN2c3nc(=O)n(-c4c(C)ccnc4C(C)C)c4nc(-c5ccccc5F)c(Cl)c(c34)OC[C@H]2C1 (single isomer, unassigned) [Compound Z87-2]",2 nM,,,,,1 nM,9 nM,5560 nM
"C=CC(=O)N1CCN2c3nc(=O)n(-c4c(OC)ncnc4C(C)C)c4nc(-c5c(O)cccc5F)c(F)c(c34)OC[C@H]2C1 (single isomer, unassigned) [Compound Z111-2]",13 nM,3 nM,34 nM,> 30000 nM,,,,
"C=CC(=O)N1CCN2c3nc(=O)n(-c4c(C)ccnc4C(C)C)c4nc(-c5cccc(F)c5F)c(Cl)c(c34)OC[C@H]2C1 (single isomer, unassigned) [Compound Z77-2]",2 nM,,,,,1 nM,8 nM,> 10000 nM
"C=CC(=O)N1CCN2c3nc(=O)n(-c4c(C)ncnc4C(C)C)c4nc(-c5cccc(F)c5F)c(Cl)c(c34)OC[C@H]2C1 (single isomer, unassigned) [Compound Z96-2]",2 nM,,,,,2 nM,7 nM,> 10000 nM
"C=CC(=O)N1CCN2c3nc(=O)n(-c4c(C)ccnc4C(C)C)c4nc(-c5c(O)cccc5F)c(F)c(c34)OC[C@H]2C1 (atropisomer, axis not shown) [Compound Z73-1]",,,,,,9 nM,116 nM,> 10000 nM
"C=CC(=O)N1CCN2c3nc(=O)n(-c4c(C)ccnc4C(C)C)c4nc(-c5cccc(F)c5F)c(Cl)c(c34)OC[C@@H]2C1 (atropisomer, axis not shown) [Compound Z47-2]",,,,,,42 nM,314 nM,> 10000 nM
"C=CC(=O)N1CCN2c3nc(=O)n(-c4c(C)ncnc4C(C)C)c4nc(-c5c(O)cccc5F)c(Cl)c(c34)OC[C@H]2C1 (single isomer, unassigned) [Compound Z88-2]",,,,,,3 nM,27 nM,> 10000 nM

# Now from value to molecule:
"IC50 [1, 5]","IC50 ([2]; Homo sapiens, NCI-H358, 120 h)","IC50 ([3]; Homo sapiens, MIA PaCa-2, 2 h)","IC50 ([4]; Homo sapiens, A549, 120 h)",IC50 [1],IC50 [2],IC50 [3],IC50 [4],SMILES
11 nM,4 nM,43 nM,14700 nM,,,,,C=CC(=O)N1CCN2c3nc(=O)n(-c4c(OC)ncnc4C(C)C)c4nc(-c5ccccc5F)c(Cl)c(c34)OC[C@H]2C1 [Compound Z110]
3 nM,1 nM,14 nM,> 10000 nM,,,,,C=CC(=O)N1CCN2c3nc(=O)n(-c4c(C)ccnc4C(C)C)c4nc(-c5ccccc5Cl)c(Cl)c(c34)OC[C@@H]2C1 [Compound Z58]
2 nM,3 nM,25 nM,> 10000 nM,,,,,C=CC(=O)N1CCN2c3nc(=O)n(-c4c(C(C)C)ccnc4C)c4nc(-c5c(O)cccc5F)c(F)c(c34)OC[C@H]2C1 [Compound Z92]
22 nM,13 nM,105 nM,> 10000 nM,,,,,C=CC(=O)N1CCN2c3nc(=O)n(-c4c(C)ccnc4C(C)C)c4nc(-c5ccccc5F)c(F)c(c34)OC[C@@H]2C1 [Compound Z84]
1 nM,1 nM,7 nM,26800 nM,,,,,C=CC(=O)N1CCN2c3nc(=O)n(-c4c(C(C)C)ncnc4C(C)C)c4nc(-c5c(O)cccc5F)c(Cl)c(c34)OC[C@H]2C1 [Compound Z97]
3 nM,,,> 10000 nM,,2 nM,22 nM,,C=CC(=O)N1CCN2c3nc(=O)n(-c4c(C)ccnc4C(C)C)c4nc(-c5c(O)cccc5F)c(F)c(c34)OC[C@H]2C1 [Compound Z73]
113 nM,12 nM,59 nM,7900 nM,,,,,C=CC(=O)N1CCN2c3nc(=O)n(-c4c(C)c(Cl)nn4C(C)C)c4nc(-c5ccccc5F)c(Cl)c(c34)OC[C@H]2C1 [Compound Z119]
21 nM,5 nM,31 nM,18700 nM,,,,,C=CC(=O)N1CCN2c3nc(=O)n(-c4c(C)nc(OC)nc4C(C)C)c4nc(-c5c(O)cccc5F)c(F)c(c34)OC[C@H]2C1 [Compound Z115]
6 nM,3 nM,21 nM,> 10000 nM,,,,,C=CC(=O)N1CCN2c3nc(=O)n(-c4c(C)ccnc4C(C)C)c4nc(-c5c(F)cccc5Cl)c(Cl)c(c34)OC[C@@H]2C1 [Compound Z67]
8 nM,1 nM,50 nM,> 10000 nM,,,,,C=CC(=O)N1CCN2c3nc(=O)n(-c4c(C)ccnc4C(C)C)c4nc(-c5cccc(Cl)c5F)c(Cl)c(c34)OC[C@@H]2C1 [Compound Z61]
7 nM,4 nM,47 nM,> 30000 nM,,,,,C=CC(=O)N1CCN2c3nc(=O)n(-c4c(OC)ncnc4C(C)C)c4nc(-c5c(O)cccc5F)c(F)c(c34)OC[C@H]2C1 [Compound Z111]
,,128 nM,> 10000 nM,22 nM,12 nM,,,C=CC(=O)N1CCN2c3nc(=O)n(-c4c(C)ccnc4C(C)C)c4nc(-c5ccc(F)cc5F)c(Cl)c(c34)OC[C@@H]2C1 [Compound Z49]
17 nM,9 nM,49 nM,> 30000 nM,,,,,C=CC(=O)N1CCN2c3nc(=O)n(-c4c(C)ncnc4C4CC4)c4nc(-c5c(O)cccc5F)c(F)c(c34)OC[C@H]2C1 [Compound Z108]
19 nM,7 nM,47 nM,> 10000 nM,,,,,C=CC(=O)N1CCN2c3nc(=O)n(-c4c(C)ccnc4C(C)C)c4nc(-c5cc(F)ccc5F)c(Cl)c(c34)OC[C@@H]2C1 [Compound Z60]
24 nM,13 nM,101 nM,> 10000 nM,,,,,C=CC(=O)N1CCN2c3nc(=O)n(-c4c(C)ccnc4C(C)C)c4nc(-c5c(C)ccc6[nH]ncc56)c(Cl)c(c34)OC[C@H]2C1 [Compound Z86]
10 nM,4 nM,48 nM,> 10000 nM,,,,,C=CC(=O)N1CCN2c3nc(=O)n(-c4c(C)ccnc4C(C)C)c4nc(-c5c(O)ccc(F)c5F)c(Cl)c(c34)OC[C@@H]2C1 [Compound Z53]
